Where “and” joins values, the source holds several entries; their conditions need not be identical. Equal values may be shown once.
Experiments:
[1] = system: L. major promastigotes; assay: Antileishmanial activity, MTT-based assay; format: cell-based, Leishmania major; details: for Selectivity Index (SI) L. major: SI = IC50 MRC-5/IC50 parasite; for IC50: promastigotes, 72 h incubation, MTT, error reported as σ; for antileishmanial activity (in words): classification used for docking analysis
Procedure: The in vitro antitrypanosomal and antileishmanial activity of the BODIPY derivatives were evaluated on the bloodstream form (BSF) of T. brucei and the promastigote form of L. major parasites. The toxicity of the compounds was determined after 72 h of incubation using the alamarBlue assay (for T. brucei) and the MTT assay (for L. major). The cytotoxicity of the compounds on a healthy human cell line (human lung fibroblast, MRC-5) was also determined after 72 h of incubation using the alamarBlue assay. The data were expressed as the half maximal inhibitory concentration (IC50). The selectivity index (SI) of each derivative was calculated by dividing the IC50 of MRC-5 cells into the IC50 of T. brucei or L. major. L. major (MHOM/IL/80/Friedlin) promastigotes were cultured at 28 °C, 5% CO2 in modified RPMI-1640 medium (Invitrogen, Carlsbad, CA, USA) supplemented with 10% hiFBS [49]. Parasites were maintained in culture in their […] growth phase (below 2 million parasites per mL for T. brucei and 10 million parasites per mL for L. major). The antileishmanial activity of the BODIPY derivatives was assessed using an MTT-based assay (Sigma-Aldrich, St. Louis, MO, USA). The stock solutions of the compounds were prepared in DMSO and the final DMSO percentage in each well was adjusted to be less than 1%. A total of 4 × 10^6 parasites per mL were incubated at 28 °C in 96-well plates (50 μL/well) alone or in the presence of an increasing concentration of compounds DMSO for 72 h. A total of 10 μL of MTT (5 mg/mL) were added to each well and parasites were incubated for 4 h at 28 °C. Finally, cells were lysed with 50 μL/well of 20% SDS. The plate was incubated at 37 °C for an extra hour and then, absorbance was measured at the Infinite F200 plate reader (TECAN Austria, GmbH, Grödig, Austria) at a wavelength of 540 nm. The IC50 was calculated as described above. Data are presented as the average of at least three independent measurements, all conducted in triplicate conditions.

[2] = system: MRC-5 cell line (human lung fibroblast); assay: Cytotoxicity, alamarBlue assay; format: cell-based; details: 72 h incubation, error reported as σ
Procedure: The in vitro antitrypanosomal and antileishmanial activity of the BODIPY derivatives were evaluated on the bloodstream form (BSF) of T. brucei and the promastigote form of L. major parasites. The toxicity of the compounds was determined after 72 h of incubation using the alamarBlue assay (for T. brucei) and the MTT assay (for L. major). The cytotoxicity of the compounds on a healthy human cell line (human lung fibroblast, MRC-5) was also determined after 72 h of incubation using the alamarBlue assay. The data were expressed as the half maximal inhibitory concentration (IC50). The selectivity index (SI) of each derivative was calculated by dividing the IC50 of MRC-5 cells into the IC50 of T. brucei or L. major. MRC-5 cell line (human lung fibroblast) was grown in a monolayer at 37 °C, 5% CO2 in DMEM medium (1 g/L glucose) supplemented with 10% hiFBS, 100 U/mL penicillin, […] and 2 mM L-glutamine. Cytotoxicity was measured in MRC-5 through alamarBlue® assay (ThermoFisher Scientific). The stock solutions of the compounds were prepared in DMSO and the final DMSO percentage in each well was adjusted to be less than 1%. A total of 5 × 10^3 cells per mL were seeded in 96-well plates (100 μL/well) with 24 h of incubation time before compound addition at 37 °C, 5% CO2. Then, the compounds were added at increasing concentrations (from 0 to 100 μM) and the plates were incubated for 72 h. A total of 20 μL of resazurin solution (110 ng/mL) was added to each well and cells were incubated for 4 h. Then, cells were lysed with 50 μL/well of 3% SDS. The plate was incubated at 37 °C for an extra hour and then, the fluorescence intensity was measured at the Infinite F200 plate reader (TECAN Austria, GmbH), exciting at 550 nm and recording the emission at 590 nm. The results are expressed as the concentration of a compound that reduces cell growth by 50% versus untreated control cells (IC50). Data are presented as the average of at least three independent measurements, all conducted in triplicate conditions.

[3] = system: T. brucei BSF; assay: Antitrypanosomal activity, alamarBlue assay; format: cell-based, Trypanosoma brucei; details: for Selectivity Index (SI) T. brucei: SI = IC50 MRC-5/IC50 parasite; for IC50: bloodstream form, 72 h incubation, alamarBlue, error reported as σ; for antitrypanosomal activity (in words): classification used for docking analysis
Procedure: The in vitro antitrypanosomal and antileishmanial activity of the BODIPY derivatives were evaluated on the bloodstream form (BSF) of T. brucei and the promastigote form of L. major parasites. The toxicity of the compounds was determined after 72 h of incubation using the alamarBlue assay (for T. brucei) and the MTT assay (for L. major). The cytotoxicity of the compounds on a healthy human cell line (human lung fibroblast, MRC-5) was also determined after 72 h of incubation using the alamarBlue assay. The data were expressed as the half maximal inhibitory concentration (IC50). The selectivity index (SI) of each derivative was calculated by dividing the IC50 of MRC-5 cells into the IC50 of T. brucei or L. major.
T. brucei (Lister 427, antigenic type MiTat 1.2, clone 221a, bloodstream forms, “single marker” S427 (S16)) were cultured at 37 °C, 5% CO2 in HMI-9 medium supplemented with 10% heat-inactivated fetal bovine serum (hiFBS, Invitrogen, Carlsbad, CA, USA), as previously described.
The antitrypanosomal activity of the BODIPY derivatives was determined by the alamarBlue® assay (ThermoFisher Scientific, Waltham, MA, USA). The stock solutions of the compounds were prepared in DMSO and the final DMSO percentage in each well was adjusted to be less than 1%. A total of 2 × 10^4 parasites per mL were incubated at 37 °C, 5% CO2 in 96-well plates (50 μL/well) alone or in the presence of an increasing concentration of compounds for 72 h. A total of 20 μL of resazurin solution (110 ng/mL) was then added to each well, and the parasites were incubated for 4 h at 37 °C. Finally, cells were lysed with 50 μL per well of SDS 3%. The plate was incubated at 37 °C for an extra hour and then, fluorescence intensity was measured with an Infinite F200 plate reader (Tecan Austria, GmbH, Grödig, Austria), exciting at 550 nm and recording the emission at 590 nm. The results are expressed as the concentration of a compound that reduces cell growth by 50% versus untreated control cells (IC50). Data are presented as the average of at least three independent measurements, all conducted in triplicate conditions.

Compound	IC50 [1]	IC50 [3]	IC50 ([1]; Leishmania major)	IC50 ([3]; Trypanosoma brucei)	Selectivity Index (SI) L. major [1]	IC50 ([2]; healthy human lung fibroblasts)	Selectivity Index (SI) T. brucei [3]	antileishmanial activity (in words) [1]	antitrypanosomal activity (in words) [3]	IC50 ([2]; MRC5, healthy human lung fibroblasts)
CC1=CC(C)=[N+]2C1=C(c1ccccc1)c1c(C)cc(C)n1[B-]2(F)F [Compound 1a]	19.7 ± 3.94 µM	38.2 ± 7.29 µM			3.42	67.2 ± 4.39 µM	1.76			
CC1=CC(C)=[N+]2C1=C(c1ccc(N(C)C)c3ccccc13)c1c(C)cc(C)n1[B-]2(F)F [Compound 1b]	4.84 ± 1.56 µM	18.2 ± 3.63 µM			16 and 15.93	76.8 ± 5.33 µM	4.21	present antileishmanial activity		
CC1=CC(C)=[N+]2C1=C(c1c3ccccc3cc3ccccc13)c1c(C)cc(C)n1[B-]2(F)F [Compound 1c]	5.41 ± 0.43 µM	77.1 ± 2.98 µM			18	82.14 ± 0.03 µM	1.07	present antileishmanial activity		
CC1=CC(C)=[N+]2C1=C(c1ccc(N(c3ccccc3)c3ccccc3)cc1)c1c(C)cc(C)n1[B-]2(F)F [Compound 1d]	> 100 µM	48.8 ± 3.29 µM			<0.91	91.3 ± 6.31 µM	1.87			
CCn1c2ccccc2c2cc(C3=C4C(C)=CC(C)=[N+]4[B-](F)(F)n4c(C)cc(C)c43)ccc21 [Compound 1e]	> 100 µM	18.7 ± 2.67 µM			<0.89	88.9 ± 3.82 µM	4.77			
CC1=CC(C)=[N+]2C1=C(c1cccs1)c1c(C)cc(C)n1[B-]2(F)F [Compound 1f]	64.5 ± 8.43 µM	36.9 ± 7.43 µM			0.90	58 ± 4.76 µM	1.57			
CC1=CC(C)=[N+]2C1=C(c1nccs1)c1c(C)cc(C)n1[B-]2(F)F [Compound 1g]	> 100 µM	55.7 ± 1.65 µM			<0.83	82.8 ± 1.2 µM	1.49			
CC1=CC(C)=[N+]2C1=C(c1ccc3ccccc3n1)c1c(C)cc(C)n1[B-]2(F)F [Compound 1h]	> 100 µM	77.4 ± 3.46 µM			<0.96	95.6 ± 3.45 µM	1.24			
CC1=CC(C)=[N+]2C1=C(c1cc3sccc3s1)c1c(C)cc(C)n1[B-]2(F)F [Compound 1i]	92.2 ± 10 µM	61.5 ± 10.9 µM			1.05	96.8 ± 4.5 µM	1.58			

Second part, led by results:

IC50 [1]	IC50 [3]	IC50 ([1]; Leishmania major)	IC50 ([3]; Trypanosoma brucei)	Compound	Selectivity Index (SI) L. major [1]	IC50 ([2]; healthy human lung fibroblasts)	Selectivity Index (SI) T. brucei [3]	antileishmanial activity (in words) [1]	antitrypanosomal activity (in words) [3]	IC50 ([2]; MRC5, healthy human lung fibroblasts)
> 100 µM	74.7 ± 6.93 µM			CC1=C(C=O)C(C)=[N+]2C1=C(c1ccccc1)c1c(C)cc(C)n1[B-]2(F)F [Compound 2a]	<0.91	91.33 ± 0.66 µM	1.22			
15.8 ± 1.31 µM	2.84 ± 0.04 µM			CC1=CC(C)=[N+]2C1=C(c1ccc(N(C)C)c3ccccc13)c1c(C)c(C=O)c(C)n1[B-]2(F)F [Compound 2b]	4.39	69.1 ± 4.9 µM	24 and 24.34	present antileishmanial activity	present antitrypanosomal activity	
10.3 ± 1.59 µM	6.17 ± 2.35 µM			CC1=C(C=O)C(C)=[N+]2C1=C(c1c3ccccc3cc3ccccc13)c1c(C)cc(C)n1[B-]2(F)F [Compound 2c]	6.47	66.9 ± 7.65 µM	11 and 10.84	present antileishmanial activity	present antitrypanosomal activity	
> 100 µM	22.7 ± 1.88 µM			CC1=C(C=O)C(C)=[N+]2C1=C(c1ccc(N(c3ccccc3)c3ccccc3)cc1)c1c(C)cc(C)n1[B-]2(F)F [Compound 2d]	<0.81	81.1 ± 3.9 µM	3.56			
20.7 ± 1.79 µM	15.2 ± 0.86 µM			CCn1c2ccccc2c2cc(C3=C4C(C)=C(C=O)C(C)=[N+]4[B-](F)(F)n4c(C)cc(C)c43)ccc21 [Compound 2e]	4.33	89.7 ± 9.08 µM	5.89			
19.7 ± 3.21 µM	12.4 ± 4.02 µM			CC1=C(C=O)C(C)=[N+]2C1=C(c1cccs1)c1c(C)cc(C)n1[B-]2(F)F [Compound 2f]	4.10	80.9 ± 1.06 µM	6.54	does not present antileishmanial activity	present antitrypanosomal activity	
> 100 µM	5.5 ± 0.21 µM			CC1=C(c2nc3ccccc3[nH]2)C(C)=[N+]2C1=C(c1ccccc1)c1c(C)cc(C)n1[B-]2(F)F [Compound 3a]		63 µM and 62.6 µM	11.38		present antitrypanosomal activity	
84.39 ± 0.32 µM	27.9 ± 5.42 µM			CC1=CC(C)=[N+]2C1=C(c1ccc(N(C)C)c3ccccc13)c1c(C)c(-c3nc4ccccc4[nH]3)c(C)n1[B-]2(F)F [Compound 3b]	>1.18	> 100 µM	>3.59			
		3.13 ± 0.13 µM	14.2 ± 0.31 µM	CC1=C(C=O)C(C)=[N+]2C1=C(c1c3ccccc3cc3ccccc13)c1c(C)c(C=O)c(C)n1[B-]2(F)F [Compound 3c]	6.91		1.53	present antileishmanial activity	present antitrypanosomal activity	21.7 ± 3.46 µM
